What was measured:
A549 cells = assay: CellTiter-Glo 2D metabolic activity assay, A549; format: cell-based; settings: Homo sapiens, 2D culture, 48 h
Method: (§1) 4.4 Cell viability assay on 2D cells cultures
(§2) HEK293, HCT116, A549,andSKOV-3 cells were seeded in 96-well tissue culture plates at a density of 2000-3000 cells per well in 100 µl of growth medium and incubated overnight at 37 °C with 5% CO2. The following day, the cells were treated with various concentrations of compounds or 0.05% DMSO for 48 h. After treatment, add 100 μl of Cell Titer-Glo® 2.0 Reagent (cat. no. G9243, Promega) in each well, then the 96-well plates were put on an orbital shaker for 10 min and then allow the plate to incubate at room temperature for 10-20min to stabilize the luminescent signal. Luminescence readout (Gen5 Data Analysis Software v3.08.01) was performed to record luminescence.
(§3) (1 picture or pasted object on this page, not shown here)

BRD4 = target: T1, BRD4 (Homo sapiens, UniProt O60885); assay: Western blot degradation of BRD4 in HEK293 cells; format: cell-based; settings: HEK293, lenalidomide 10 μM preincubated 2 h, PROTAC 100 nM, 4 h
T1 construct: BRD2, BRD3 and BRD4 protein levels were measured by western blot; endogenous in cells; host or cells: HEK293 (ATCC)
Method: HEK293, A549, SKOV-3, HCT116 cells (ATCC)were grown in DMEM (Gibco),and all cells were supplemented with 10% (v/v) fetal bovine serum (FBS) (Sigma), 100 mg/mL penicillin/streptomycin solution (Thermo Fisher Scientific) and maintained at 37 °C and 5% CO2 in a humidified atmosphere. All cells used were tested monthly using the Mycoalert
4.3 Degradation assays by Western blot
General method of Western blot: Lysates were sonicated and centrifuged at 4 °C at 20000 g for 15 min, and the supernatants were transferred to new tubes. Protein concentration of cell lysates was measured using the DC Protein Assay kit (BIO-RAD) following manufacturer's instructions. Cell lysates were mixed with reducing sample buffer (0.5 M Tris-HCl (pH 6.8),
at 95°C. Proteins were separated by SDS–PAGE (SDS polyacrylamide gel electrophoresis) with 25–40 µg of total protein per well, transferred to 0.2-μm-pore nitrocellulose membranes (BIO-RAD), then blocked in 5%(w/v) milk in PBS and 0.5% Tween-20, and incubated overnight at 4°C with primary antibodies described in section 4.1. Secondary antibodies were added for 1h at room temperature after 3 times washing with blocking buffer. After 6 times of washing
with PBS (Thermo Fisher Scientific) and 0.5% Tween-20, Blots were detected using the Clarity Western ECL Substrate (BIO-RAD) and visualized on iBright CL 750 (Thermo Fisher Scientific) and images were analyzed using iBright Firmware 1.7.0.
4.3.1 Evaluation of the degradation capacity of PROTACs […]

[1] = system: BRD2, BRD3, and BRD4 proteins; assay: Western blot BET protein degradation in HEK293 cells (screen, washout kinetics, proteasome rescue); format: cell-based, human; settings: 4 h, 0.1 μM and 1 μM
Excerpt: 4. Biological experiments
Primary antibodies used for western blotting included anti-human BRD2(1:2000, rabbit monoclonal, Abcam, ab139690), anti-human BRD3 (1:1000, rabbit monoclonal, Abcam, ab264420), anti-human BRD4 (E2A7X) (1:1000, rabbit monoclonal, Cell Signaling Technology, #13440), anti-human VHL (1:1000, rabbit polyclonal, Cell Signaling Technology, #68547), anti-human CRBN (D8H3S) (1:1000, rabbit polyclonal, Cell Signaling Technology, #71810), anti-human alpha Tubulin, clone B-5-1-2 (1:5000, mouse monoclonal, Merck Life Science, # 32-2500).Secondary antibodies used for western blot included: anti-mouse horseradish peroxidase-linked antibody (1:3000, sheep, GE Healthcare Life Sciences, #NA931V), and anti-rabbit horseradish peroxidase-linked antibody (1:8000, donkey, GE Healthcare Life Sciences, #NA934V). Reagent for degradation assay and compounds […]
dr. Serge Van Calenbergh, Ghent University).
4.2 Cell lines and culture […]
General method of Western blot: Lysates were sonicated and centrifuged at 4 °C at 20000 g for 15 min, and the supernatants were transferred to new tubes. Protein concentration of cell lysates was measured using the DC Protein Assay kit (BIO-RAD) following manufacturer's instructions. […]
Figure S1 Dual-ligand PROTACs induce target protein degradation in A549 cells. […] Subsequently, cells were lysed and BRD2, BRD3 and BRD4 protein levels were measured by Western blot. […]

[2] = system: HEK293, A549, HCT116 and SKOV-3; assay: CellTiter-Glo metabolic activity, cell line panel; format: cell-based; settings: 48 h
Method: as §1, §2, §3

BRD4 degradation efficiency on addition of lenalidomide (BRD4) | SMILES | EC50 (A549 cells) | degradation efficiency versus single- and trivalent PROTACs [1] | metabolic inhibition, comparison [2]
– | Cc1ncsc1-c1ccc(CNC(=O)C2CC(O)CN2C(=O)C(NC(=O)COCCOCCOCCNC(=O)CC2N=C(c3ccc(Cl)cc3)c3c(sc(C)c3C)-n3c(C)nnc32)C(C)(C)C)cc1 (centres unmarked) [MZ1, reference compound] | 400 nM | – | –
significantly reduced | Cc1sc2c(c1C)C(c1ccc(Cl)cc1)=N[C@@H](CC(=O)NCCOCCOCCNC(=O)C[C@H](NC(=O)COCCOCCOCCOCCn1cc(CCC(=O)N[C@@H](CC(=O)NCCOCCOCCNc3cccc4c3C(=O)N(C3CCC(=O)NC3=O)C4=O)C(=O)NCCOCCOCCNc3cccc4c3C(=O)N(C3CCC(=O)NC3=O)C4=O)nn1)C(=O)NCCOCCOCCNC(=O)C[C@@H]1N=C(c3ccc(Cl)cc3)c3c(sc(C)c3C)-n3c(C)nnc31)c1nnc(C)n1-2 (some centres unmarked) [2J2P] | – | superior degradation efficiency | –
– | Cc1ncsc1-c1ccc(C(C)NC(=O)C2CC(O)CN2C(=O)C(NC(=O)COCCOCCNC(=O)CC(NC(=O)CCc2cn(CCOCCOCCOCCOCC(=O)NC(CC(=O)NCCOCCOCCNC(=O)CC3N=C(c4ccc(Cl)cc4)c4c(sc(C)c4C)-n4c(C)nnc43)C(=O)NCCOCCOCCNC(=O)CC3N=C(c4ccc(Cl)cc4)c4c(sc(C)c4C)-n4c(C)nnc43)nn2)C(=O)NCCOCCOCC(=O)NC(C(=O)N2CC(O)CC2C(=O)NC(C)c2ccc(-c3scnc3C)cc2)C(C)(C)C)C(C)(C)C)cc1 (centres unmarked) [2J2V] | – | superior degradation efficiency | greater metabolic response compared to the CRBN ligase-based dual-ligand PROTACs 2J2P

— publication PMC11462456 (Chemical Science, 2024)
